In US9115137B2, “2,3,4,5-tetrahydro-1H-pyrido[4,3-B]indole compounds and methods of use thereof” (priority 2008, dated 2015):

How the values were obtained:
[1] = target: T1, human recombinant adrenergic α2A receptor (Homo sapiens, UniProt P08913); experiment: Adrenergic α2A radioligand binding ([3H]MK-912); settings: compound at 1 μM; insect Sf9 cells; read-out: Adrenergic (1 μM) α2A, percent inhibition of specific binding
T1 construct: expressed in transfected cells; host or cells: insect Sf9 cells
T1 sequence (P08913 1-465): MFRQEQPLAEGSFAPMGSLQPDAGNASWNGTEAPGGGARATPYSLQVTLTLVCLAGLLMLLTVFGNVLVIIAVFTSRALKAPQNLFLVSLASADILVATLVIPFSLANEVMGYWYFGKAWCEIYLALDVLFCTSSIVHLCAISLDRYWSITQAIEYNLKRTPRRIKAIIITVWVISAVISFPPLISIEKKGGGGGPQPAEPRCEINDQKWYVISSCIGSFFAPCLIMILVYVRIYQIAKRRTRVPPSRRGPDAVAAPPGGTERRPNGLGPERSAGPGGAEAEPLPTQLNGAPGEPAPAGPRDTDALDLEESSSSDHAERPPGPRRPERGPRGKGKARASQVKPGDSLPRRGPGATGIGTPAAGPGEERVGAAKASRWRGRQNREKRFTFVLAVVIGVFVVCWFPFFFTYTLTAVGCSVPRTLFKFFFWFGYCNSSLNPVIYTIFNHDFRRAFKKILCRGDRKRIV
Procedure: To evaluate in radioligand binding assays the activity of compounds of the invention, human recombinant adrenergic α2A receptor expressed in insect Sf9 cells (Uhlen S et al. J Pharmacol Exp Ther. 271:1558, 1994) in a modified Tris-HCl buffer (50 mM Tris-HCl, pH 7.4, 12.5 mM MgCl2, 2 mM EDTA) was used. Compounds of invention were incubated with 1 nM [^3H]MK-912 for 60 minutes at 25° C. MK912 is (2S-trans)-1,3,4,5′,6,6′,7,12b-octahydro-1′,3′-dimethyl-spiro[2H-benzofuro[2,3-a]quinolizine-2,4′(1′H)-pyrimidin]-2′(3′H)-one hydrochloride Non-specific binding was estimated in the presence of 10 μM WB-4101 (2-(2,6-Dimethoxyphenoxyethyl)aminomethyl-1,4-benzodioxane hydrochloride). Receptor proteins were filtered and washed, the filters were then counted to determine [^3H]MK-912 specifically bound. Compounds were screened at 1 μM or lower, using 1% DMSO as vehicle. Biochemical assay results are presented as the percent inhibition of specific binding in Table 6.

[2] = target: T2, human recombinant adrenergic α2B receptor (Homo sapiens, UniProt P18089); experiment: Adrenergic α2B radioligand binding ([3H]Rauwolscine); settings: compound at 1 μM; CHO-K1 cells; read-out: Adrenergic (1 μM) α2B, percent inhibition of specific binding
T2 construct: expressed in transfected cells; host or cells: CHO-K1 cells
T2 sequence (P18089 1-450): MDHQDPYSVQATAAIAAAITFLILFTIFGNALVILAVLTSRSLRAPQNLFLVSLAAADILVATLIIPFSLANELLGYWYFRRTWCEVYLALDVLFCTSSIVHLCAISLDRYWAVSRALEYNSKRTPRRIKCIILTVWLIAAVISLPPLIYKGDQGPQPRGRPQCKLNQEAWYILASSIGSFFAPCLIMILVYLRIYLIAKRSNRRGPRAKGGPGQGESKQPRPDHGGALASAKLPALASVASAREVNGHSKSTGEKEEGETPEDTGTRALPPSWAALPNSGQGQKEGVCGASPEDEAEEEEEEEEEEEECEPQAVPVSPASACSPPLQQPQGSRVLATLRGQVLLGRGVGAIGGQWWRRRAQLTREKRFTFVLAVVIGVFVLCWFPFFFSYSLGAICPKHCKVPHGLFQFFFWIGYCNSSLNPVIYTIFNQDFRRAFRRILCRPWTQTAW
Procedure: To evaluate in radioligand binding assays the activity of compounds of the invention, human recombinant adrenergic α2B receptor expressed in Chinese hamster ovary (CHO-K1) cells (Uhlen S et al. Eur. J. Pharmacol. 343(1):93, 1998) in a modified Tris-HCl buffer (50 mM Tris-HCl, pH 7.4, 12.5 mM MgCl2, 1 mM EDTA, 0.2% BSA) was used. Compounds of the invention were incubated with 2.5 nM [3H]Rauwolscine for 60 minutes at 25° C. Non-specific binding was estimated in the presence of 10 μM Prozosin. Receptor proteins were filtered and washed, the filters were then counted to determine [^3H]Rauwolscine specifically bound. Compounds were screened at 1 μM or lower, using 1% DMSO as vehicle. Biochemical assay results are presented as the percent inhibition of specific binding in Table 6.

[3] = target: T3, human recombinant serotonin (5-Hydroxytryptamine) 5-HT6 receptor (Homo sapiens, UniProt P50406); experiment: Serotonin 5-HT6 radioligand binding ([3H]LSD); settings: compound at 1 μM; HeLa cells; read-out: Serotonin (1 μM) 5-HT6, percent inhibition of specific binding
T3 construct: expressed in transfected cells; host or cells: human HeLa cells
T3 sequence (P50406 whole entry): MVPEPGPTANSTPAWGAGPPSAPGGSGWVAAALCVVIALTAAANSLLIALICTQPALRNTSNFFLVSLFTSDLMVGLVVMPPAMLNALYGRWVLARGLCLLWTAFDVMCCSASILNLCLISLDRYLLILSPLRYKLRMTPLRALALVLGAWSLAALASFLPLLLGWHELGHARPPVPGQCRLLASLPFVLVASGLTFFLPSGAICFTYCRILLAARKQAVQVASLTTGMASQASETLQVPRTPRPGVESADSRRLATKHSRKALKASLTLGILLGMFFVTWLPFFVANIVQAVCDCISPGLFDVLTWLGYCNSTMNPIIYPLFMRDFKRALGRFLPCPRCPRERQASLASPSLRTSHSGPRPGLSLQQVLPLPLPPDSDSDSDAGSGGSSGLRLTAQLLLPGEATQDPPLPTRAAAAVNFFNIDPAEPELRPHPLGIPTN
Procedure: To evaluate in radioligand binding assays the activity of compounds of the invention, human recombinant serotonin (5-Hydroxytryptamine) 5-HT6 receptor expressed in human HeLa cells (Monsma, F. J. Jr. et al., Mol. Pharmacol. 43:320, 1993) in a modified Tris-HCl buffer (50 mM Tris-HCl, pH 7.4, 150 mM NaCl, 2 mM Ascorbic Acid, 0.001% BSA) was used. Compounds of the invention were incubated with 1.5 nM [3H]Lysergic acid diethylamide (LSD) for 120 minutes at 37° C. Non-specific binding was estimated in the presence of 5 μM Serotonin (5-HT). Receptor proteins were filtered and washed, the filters were then counted to determine [3H]LSD specifically bound. Compounds were screened at 1 μM or lower, using 1% DMSO as vehicle. Biochemical assay results are presented as the percent inhibition of specific binding in Table 7.

[4] = target: T4, human recombinant dopamine D2L receptor (Homo sapiens, UniProt P14416); experiment: Dopamine D2L radioligand binding ([3H]Spiperone); settings: compound at 1 μM; CHO cells; read-out: Dopamine (1 μM) D2L, percent inhibition of specific binding
T4 construct: expressed in transfected cells; host or cells: CHO cells
T4 sequence (P14416 whole entry): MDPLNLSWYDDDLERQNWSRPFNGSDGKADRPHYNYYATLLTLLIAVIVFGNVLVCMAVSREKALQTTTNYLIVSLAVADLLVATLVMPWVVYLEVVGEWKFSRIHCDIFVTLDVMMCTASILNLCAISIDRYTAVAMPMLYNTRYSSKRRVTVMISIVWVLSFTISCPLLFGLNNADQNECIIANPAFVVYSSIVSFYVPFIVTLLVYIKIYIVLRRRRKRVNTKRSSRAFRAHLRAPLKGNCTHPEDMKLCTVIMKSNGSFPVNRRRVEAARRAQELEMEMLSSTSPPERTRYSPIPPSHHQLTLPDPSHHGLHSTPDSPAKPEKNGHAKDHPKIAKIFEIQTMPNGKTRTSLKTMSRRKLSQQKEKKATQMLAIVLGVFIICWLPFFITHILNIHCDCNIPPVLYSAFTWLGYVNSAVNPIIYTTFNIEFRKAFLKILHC
Procedure: To evaluate in radioligand binding assays the activity of compounds of the invention, human recombinant dopamine D2L receptor expressed in Chinese hamster ovary (CHO) cells (Grandy, D. K. et al. Proc. Natl. Acad. Sci. USA. 86:9762, 1989; Hayes, G. et al., Mol. Endocrinol. 6:920, 1992) in a modified Tris-HCl buffer (50 mM Tris-HCl, pH 7.4, 1.4 mM Ascorbic Acid, 0.001% BSA, 150 mM NaCl) was used. Compounds of the invention were incubated with 0.16 nM [^3H]Spiperone for 120 minutes at 25° C. Non-specific binding was estimated in the presence of 10 μM Haloperidol. Receptor proteins were filtered and washed, the filters were then counted to determine [^3H]Spiperone specifically bound. Compounds were screened at 1 μM or lower, using 1% DMSO as vehicle. Biochemical assay results are presented as the percent inhibition of specific binding in Table 6.

SMILES	inhibition at 1 µM [1]	inhibition at 1 µM [2]	inhibition at 1 µM [3]	inhibition at 1 µM [4]
CCNC(=O)Cn1c2c(c3cc(C)ccc31)CN(C)CC2 [Compound 22, N-ethyl-2-(1,2,3,4-tetrahydro-2,8-dimethylpyrido[4,3-b]indol-5-yl)acetamide]	40%	58%	27%	-2%
Cc1ccc2c(c1)c1c(n2CC(=O)NC(C)C)CCN(C)C1 [Compound 23, 2-(1,2,3,4-tetrahydro-2,8-dimethylpyrido[4,3-b]indol-5-yl)-N-isopropylacetamide]	12%	18%	3%	5%
Cc1ccc2c(c1)c1c(n2CC(=O)NC(C)(C)C)CCN(C)C1 [Compound 24, N-tert-butyl-2-(1,2,3,4-tetrahydro-2,8-dimethylpyrido[4,3-b]indol-5-yl)acetamide]	10%	13%	6%	3%
Cc1ccc2c(c1)c1c(n2CC(=O)NCc2ccccc2)CCN(C)C1 [Compound 25, N-benzyl-2-(1,2,3,4-tetrahydro-2,8-dimethylpyrido[4,3-b]indol-5-yl)acetamide]	2%	38%	58%	-3%
Cc1ccc2c(c1)c1c(n2CC(=O)NCC2CCCCC2)CCN(C)C1 [Compound 26, N-(cyclohexylmethyl)-2-(1,2,3,4-tetrahydro-2,8-dimethylpyrido[4,3-b]indol-5-yl)acetamide]	22%	45%	34%	-4%
CN1CCc2c(c3cc(Cl)ccc3n2CC(=O)NC2CCCC2)C1 [Compound 27, 2-(8-chloro-1,2,3,4-tetrahydro-2-methylpyrido[4,3-b]indol-5-yl)-N-cyclopentylacetamide]	12%	35%	13%	-2%
Cc1ccc2c(c1)c1c(n2CCC(=O)NC(C)(C)C)CCN(C)C1 [Compound 28]	44%	85%	47%	-1%
Cc1ccc2c(c1)c1c(n2CCC(=O)Nc2ccccc2)CCN(C)C1 [Compound 29]	78%	79%	43%	2%
Cc1ccc2c(c1)c1c(n2CCC(=O)NCC2CCCCC2)CCN(C)C1 [Compound 30, N-(cyclohexylmethyl)-3-(1,2,3,4-tetrahydro-2,8-dimethylpyrido[4,3-b]indol-5-yl)propanamide]	74%	104%	18%	7%
CN1CCc2c(c3cc(Cl)ccc3n2CCC(=O)NC2CCCC2)C1 [Compound 31, 3-(8-chloro-1,2,3,4-tetrahydro-2-methylpyrido[4,3-b]indol-5-yl)-N-cyclopentylpropanamide]	37%	91%	34%	9%
CN1CCc2c(c3cc(Cl)ccc3n2CC(N)=O)C1 [Compound 45, 2-(8-chloro-1,2,3,4-tetrahydro-2-methylpyrido[4,3-b]indol-5-yl)acetamide]	16%	18%	5%	7%
Cc1ccc2c(c1)c1c(n2CCC(N)=O)CCN(C)C1 [Compound 46, 3-(1,2,3,4-tetrahydro-2,8-dimethylpyrido[4,3-b]indol-5-yl)propanamide]	44%	46%	11%	4%
Cc1ccc2c(c1)c1c(n2CCC(=O)Nc2ccc(F)cc2)CCN(C)C1 [Compound 47, N-(4-fluorophenyl)-3-(1,2,3,4-tetrahydro-2,8-dimethylpyrido[4,3-b]indol-5-yl)propanamide]	73%	96%	63%	-3%
CN1CCc2c(c3cc(Cl)ccc3n2CC(=O)N(C)C)C1 [Compound 48, 2-(8-chloro-1,2,3,4-tetrahydro-2-methylpyrido[4,3-b]indol-5-yl)-N,N-dimethylacetamide]	20%	13%	12%	-6%
CN1CCc2c(c3cc(Cl)ccc3n2CCC(=O)N(C)C)C1 [Compound 49, 3-(8-chloro-1,2,3,4-tetrahydro-2-methylpyrido[4,3-b]indol-5-yl)-N,N-dimethylpropanamide]	83%	76%	24%	9%
Cc1ccc2c(c1)c1c(n2CCNC(=O)c2ccncc2)CCN(C)C1 [Compound 50, N-(2-(1,2,3,4-tetrahydro-2,8-dimethylpyrido[4,3-b]indol-5-yl)ethyl)isonicotinamide]	38%	70%	-1%	7%
Cc1ccc2c(c1)c1c(n2CC(=O)Nc2ccc(F)cc2)CCN(C)C1 [Compound 51, N-(4-fluorophenyl)-2-(1,2,3,4-tetrahydro-2,8-dimethylpyrido[4,3-b]indol-5-yl)acetamide]	22%	82%	30%	19%
